T/C data for 14 compounds are collected here from PubChem BioAssay AID248 (DTP/NCI, 2004).

The subject of the assay is L1210 leukemia ip in BDF1 mice, survival T/C. The experiment in a line: NCI In Vivo Anticancer Drug Screen. Data for tumor model L1210 Leukemia (intraperitoneal) in B6D2F1 (BDF1) mice. Conditions: higher = longer survival. In short, it runs like this: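 Read-out is survival time, reported as the treated-group measurement over the vehicle-control measurement.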
Where [1] appears, read: endpoint: mean survival time, dose: 100.0 mg/kg/injection, schedule: Q04DX003 (ip), vehicle: saline.
[2] abbreviates: endpoint: mean survival time, dose: 200.0 mg/kg/injection, schedule: Q04DX003 (ip), vehicle: saline.
Setting [3] is: endpoint: mean survival time, dose: 400.0 mg/kg/injection, schedule: Q04DX003 (ip), vehicle: saline.
[4] abbreviates: endpoint: mean survival time, dose: 100.0 mg/kg/injection, schedule: Q04DX002 (ip), vehicle: Klucel (hydroxypropylcellulose) (HPC).
The mark [5] stands for this setting: endpoint: mean survival time, dose: 200.0 mg/kg/injection, schedule: Q04DX002 (ip), vehicle: Klucel (hydroxypropylcellulose) (HPC).
Setting [6] is: endpoint: mean survival time, dose: 400.0 mg/kg/injection, schedule: Q04DX002 (ip), vehicle: Klucel (hydroxypropylcellulose) (HPC).
[7] abbreviates: endpoint: mean survival time, dose: 100.0 mg/kg/injection, schedule: Q01DX009 (ip), vehicle: Klucel (hydroxypropylcellulose) (HPC).
Where [8] appears, read: endpoint: mean survival time, dose: 200.0 mg/kg/injection, schedule: Q01DX009 (ip), vehicle: Klucel (hydroxypropylcellulose) (HPC).
[9] abbreviates: endpoint: mean survival time, dose: 100.0 mg/kg/injection, schedule: Q04DX003 (ip), vehicle: saline with Tween-80.

Values joined by “and” are separate entries in the source; they are usually repeats but may differ in a detail not shown here. Identical values can stand only once. Toxic doses and inconclusive results are not listed.

For `O=c1ccn(O)cc1`, the T/C runs as follows: (endpoint: mean survival time, dose: 100.0 mg/kg/injection, schedule: Q04DX002 (ip), vehicle: other) 96 % of control; (endpoint: mean survival time, dose: 200.0 mg/kg/injection, schedule: Q04DX002 (ip), vehicle: other) 100 % of control; (endpoint: mean survival time, dose: 400.0 mg/kg/injection, schedule: Q04DX002 (ip), vehicle: other) 88 % of control.

With `Cc1cccn2ncnc12`, the T/C is, setting by setting: (endpoint: mean survival time, dose: 50.0 mg/kg/injection, schedule: Q01DX001 (ip), vehicle: alcohol) 106 % of control; (endpoint: mean survival time, dose: 100.0 mg/kg/injection, schedule: Q01DX001 (ip), vehicle: alcohol) 107 % of control; (endpoint: mean survival time, dose: 200.0 mg/kg/injection, schedule: Q01DX001 (ip), vehicle: alcohol) 102 % of control.

Turning to `COC1OC2COC(c3ccccc3)OC2C(NC(C)=O)C1OC(C)=O` (stereo not given), the T/C under setting [1] is 98 % of control, the T/C under setting [2] was 97 % of control and the T/C under setting [3] is 101 % of control.

Consider `c1ccc2[nH]c(SCCSc3nc4ccccc4[nH]3)nc2c1`, for which the T/C under setting [4] was 111 % of control, the T/C under setting [5] is 107 % of control and the T/C under setting [6] was 92 % of control.

Regarding `OCCCN=Cc1ccccc1O.[Co]`, the T/C runs as follows: (endpoint: mean survival time, dose: 5.0 mg/kg/injection, schedule: Q01DX001 (ip), vehicle: saline) 100 % of control; (endpoint: mean survival time, dose: 10.0 mg/kg/injection, schedule: Q01DX001 (ip), vehicle: saline) 94 % of control; (endpoint: mean survival time, dose: 20.0 mg/kg/injection, schedule: Q01DX001 (ip), vehicle: saline) 100 % of control; (endpoint: mean survival time, dose: 40.0 mg/kg/injection, schedule: Q01DX001 (ip), vehicle: saline) 102 % of control; (endpoint: mean survival time, dose: 80.0 mg/kg/injection, schedule: Q01DX001 (ip), vehicle: saline) 105 % of control.

As for `CC(C)(C)C12OC1C(=O)C1(C(C)(C)C)OC1C2=O` (stereo not given), the T/C was 97 % of control under setting [7]; 103 % of control under setting [8]; 105 % of control (endpoint: mean survival time, dose: 400.0 mg/kg/injection, schedule: Q01DX009 (ip), vehicle: Klucel (hydroxypropylcellulose) (HPC)).

As for `O=C(NC(NC(=O)c1ccc(Cl)cc1)C(Cl)(Cl)Cl)c1ccc(Cl)cc1`, the T/C (endpoint: mean survival time, dose: 25.0 mg/kg/injection, schedule: Q01DX009 (ip), vehicle: saline with Tween-80) was 100 % of control; the T/C (endpoint: mean survival time, dose: 50.0 mg/kg/injection, schedule: Q01DX009 (ip), vehicle: saline with Tween-80) is 93 % of control; the T/C (endpoint: mean survival time, dose: 100.0 mg/kg/injection, schedule: Q01DX009 (ip), vehicle: saline with Tween-80) was 92 % of control; the T/C under setting [9] is 92 % of control.

Turning to `COC(=O)CC(=O)c1ccc(OCCOc2ccc(C(C)(C)CC(C)(C)C)cc2)c([N+](=O)[O-])c1`, the T/C is 91 % of control (endpoint: mean survival time, dose: 100.0 mg/kg/injection, schedule: Q01DX009 (ip), vehicle: saline sonified); 93 % of control (endpoint: mean survival time, dose: 100.0 mg/kg/injection, schedule: Q04DX003 (ip), vehicle: Klucel (hydroxypropylcellulose) (HPC)); 96 % of control (endpoint: mean survival time, dose: 200.0 mg/kg/injection, schedule: Q01DX009 (ip), vehicle: saline sonified); 96 % of control (endpoint: mean survival time, dose: 200.0 mg/kg/injection, schedule: Q04DX003 (ip), vehicle: Klucel (hydroxypropylcellulose) (HPC)); 95 % of control (endpoint: mean survival time, dose: 400.0 mg/kg/injection, schedule: Q01DX009 (ip), vehicle: saline sonified); 93 % of control (endpoint: mean survival time, dose: 400.0 mg/kg/injection, schedule: Q04DX003 (ip), vehicle: Klucel (hydroxypropylcellulose) (HPC)).

`NC(=O)C(O)c1ccccc1` (stereo not given): the T/C under setting [1] is 96 % of control, the T/C under setting [2] is 94 % of control and the T/C under setting [3] was 100 % of control.

As for `COc1cc2c[n+](C)c3c4cc5c(cc4ccc3c2cc1OC)OCO5`, the T/C by setting is: (endpoint: mean survival time, dose: 1.0 mg/kg/injection, schedule: Q01DX009 (ip), vehicle: saline) 109 % of control and 120 % of control; (endpoint: mean survival time, dose: 10.0 mg/kg/injection, schedule: Q01DX009 (ip), vehicle: saline) 118 % of control; (endpoint: mean survival time, dose: 40.0 mg/kg/injection, schedule: Q01DX009 (ip), vehicle: saline) 121 % of control; (endpoint: mean survival time, dose: 64.0 mg/kg/injection, schedule: Q01DX009 (ip), vehicle: saline) 117 % of control and 121 % of control; (endpoint: mean survival time, dose: 80.0 mg/kg/injection, schedule: Q04DX003 (ip), vehicle: saline) 150 % of control; under setting [4], 111 % of control. The T/C is, setting by setting: under setting [5], 111 % of control; under setting [6], 107 % of control; (endpoint: median survival time, dose: 1.0 mg/kg/injection, schedule: Q03HX024 (ip), vehicle: saline) 114 % of control; (endpoint: median survival time, dose: 2.0 mg/kg/injection, schedule: Q03HX016 (ip), vehicle: saline) 124 % of control; (endpoint: median survival time, dose: 4.0 mg/kg/injection, schedule: Q03HX008 (ip), vehicle: saline) 121 % of control; (endpoint: median survival time, dose: 4.0 mg/kg/injection, schedule: Q03HX016 (ip), vehicle: saline) 119 % of control. The T/C is, setting by setting: (endpoint: median survival time, dose: 8.0 mg/kg/injection, schedule: Q04DX003 (ip), vehicle: saline) 103 % of control; (endpoint: median survival time, dose: 8.0 mg/kg/injection, schedule: Q08DX002 (ip), vehicle: saline) 105 % of control; (endpoint: median survival time, dose: 16.0 mg/kg/injection, schedule: Q01DX009 (oral), vehicle: saline) 105 % of control; (endpoint: median survival time, dose: 16.0 mg/kg/injection, schedule: Q03HX008 (ip), vehicle: saline) 121 % of control; (endpoint: median survival time, dose: 16.0 mg/kg/injection, schedule: Q04DX003 (ip), vehicle: saline) 101 % of control; (endpoint: median survival time, dose: 16.0 mg/kg/injection, schedule: Q08DX002 (ip), vehicle: saline) 103 % of control. Further, the T/C was 121 % of control (endpoint: median survival time, dose: 32.0 mg/kg/injection, schedule: Q01DX001 (ip), vehicle: saline); 109 % of control (endpoint: median survival time, dose: 32.0 mg/kg/injection, schedule: Q01DX009 (oral), vehicle: saline); 101 % of control (endpoint: median survival time, dose: 32.0 mg/kg/injection, schedule: Q04DX003 (ip), vehicle: saline); 112 % of control (endpoint: median survival time, dose: 64.0 mg/kg/injection, schedule: Q01DX001 (ip), vehicle: saline); 112 % of control (endpoint: median survival time, dose: 64.0 mg/kg/injection, schedule: Q01DX009 (ip), vehicle: saline); 103 % of control (endpoint: median survival time, dose: 64.0 mg/kg/injection, schedule: Q01DX009 (oral), vehicle: saline). Besides, the T/C is 101 % of control (endpoint: median survival time, dose: 64.0 mg/kg/injection, schedule: Q04DX003 (ip), vehicle: saline); 121 % of control (endpoint: median survival time, dose: 128.0 mg/kg/injection, schedule: Q01DX001 (ip), vehicle: saline); 102 % of control (endpoint: median survival time, dose: 128.0 mg/kg/injection, schedule: Q01DX009 (oral), vehicle: saline); 87 % of control (endpoint: median survival time, dose: 128.0 mg/kg/injection, schedule: Q04DX003 (ip), vehicle: saline); 101 % of control (endpoint: median survival time, dose: 128.0 mg/kg/injection, schedule: Q08DX002 (ip), vehicle: saline); 100 % of control (endpoint: median survival time, dose: 256.0 mg/kg/injection, schedule: Q01DX009 (oral), vehicle: saline). Moreover, for the setting “endpoint: median survival time, dose: 512.0 mg/kg/injection, schedule: Q01DX009 (oral), vehicle: saline”, the T/C is 105 % of control.

With `CCCCCOc1ccc(C=Nc2ccc(C)cc2)cc1`, the T/C by setting is: under setting [7], 98 % of control; under setting [8], 103 % of control.

As for `CCOC(=O)CC(c1ccccc1)C(C(=O)OCC)C(=O)OCC` (stereo not given), the T/C reads like this: (endpoint: mean survival time, dose: 100.0 mg/kg/injection, schedule: Q01DX001 (ip), vehicle: saline) 106 % of control; (endpoint: mean survival time, dose: 200.0 mg/kg/injection, schedule: Q01DX001 (ip), vehicle: saline) 103 % of control; (endpoint: mean survival time, dose: 400.0 mg/kg/injection, schedule: Q01DX001 (ip), vehicle: saline) 103 % of control.

As to `Cc1cc(O)cc(C)c1C1=NCC(C)S1` (stereo not given), the T/C is, setting by setting: under setting [4], 104 % of control; under setting [5], 90 % of control; under setting [6], 90 % of control.

As to `COc1ccc(OC(=O)Nc2ccccc2[N+](=O)[O-])cc1`, the T/C was 106 % of control under setting [9]; 94 % of control (endpoint: mean survival time, dose: 200.0 mg/kg/injection, schedule: Q04DX003 (ip), vehicle: saline with Tween-80); 95 % of control (endpoint: mean survival time, dose: 400.0 mg/kg/injection, schedule: Q04DX003 (ip), vehicle: saline with Tween-80).
